Results: patent publication US20130196984A1, “3-AMINO-5-PHENYL-56-DIHYDRO-2H-[1,4]OXAZINES” (Siena Biotech S.p.A., priority 2009, published 2013)
Where a name gives a salt, the structure may show the parent alone.

How the values were obtained:
[1] = molecular target: T1, BACE2 (Homo sapiens, UniProt Q9Y5Z0); experiment: Assay A: binding studies using SPR based methods, immobilised BACE2; details: CM5 chip, immobilised BACE2 enzyme ectodomain, acetate buffer pH 4.6, 4% DMSO
T1 construct: BACE2 enzyme ectodomain (derived from plasmid “pET17b-T7-hu proBACE2”); T7 (N); made in house
T1 sequence (Q9Y5Z0 63-473 limits assumed): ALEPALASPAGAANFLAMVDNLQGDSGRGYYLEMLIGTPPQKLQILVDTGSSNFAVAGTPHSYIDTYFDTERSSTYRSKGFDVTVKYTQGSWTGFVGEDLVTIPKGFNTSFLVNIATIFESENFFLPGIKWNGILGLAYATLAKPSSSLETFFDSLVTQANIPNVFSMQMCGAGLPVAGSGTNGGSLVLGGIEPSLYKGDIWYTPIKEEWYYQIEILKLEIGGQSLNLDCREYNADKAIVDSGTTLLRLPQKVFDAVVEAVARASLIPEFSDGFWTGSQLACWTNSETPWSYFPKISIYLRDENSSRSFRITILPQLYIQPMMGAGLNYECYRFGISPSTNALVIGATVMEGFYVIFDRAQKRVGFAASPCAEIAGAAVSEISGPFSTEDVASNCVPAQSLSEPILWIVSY

[2] = molecular target: T2, BACE2 (Rattus norvegicus, UniProt Q6IE75); experiment: Assay for BACE inhibition by measuring cellular TMEM27 cleavage; type: cell-based; details: INS-TMEM27 (INS1e-derived) cells, ELISA of shed human TMEM27 in supernatant;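 also: inhibitor added 2 h before doxycycline-induced hTMEM27 expression, supernatant collected after further 46 h, endogenous BACE2 activity read as reduced TMEM27 shedding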
T2 construct: endogenous cellular BACE2 in the Ins1e rat cell line; endogenous in cells; host or cells: INS-TMEM27 (INS1e-derived rat cell line with doxycycline-inducible full-length hTMEM27)
T2 sequence (Q6IE75 63-514): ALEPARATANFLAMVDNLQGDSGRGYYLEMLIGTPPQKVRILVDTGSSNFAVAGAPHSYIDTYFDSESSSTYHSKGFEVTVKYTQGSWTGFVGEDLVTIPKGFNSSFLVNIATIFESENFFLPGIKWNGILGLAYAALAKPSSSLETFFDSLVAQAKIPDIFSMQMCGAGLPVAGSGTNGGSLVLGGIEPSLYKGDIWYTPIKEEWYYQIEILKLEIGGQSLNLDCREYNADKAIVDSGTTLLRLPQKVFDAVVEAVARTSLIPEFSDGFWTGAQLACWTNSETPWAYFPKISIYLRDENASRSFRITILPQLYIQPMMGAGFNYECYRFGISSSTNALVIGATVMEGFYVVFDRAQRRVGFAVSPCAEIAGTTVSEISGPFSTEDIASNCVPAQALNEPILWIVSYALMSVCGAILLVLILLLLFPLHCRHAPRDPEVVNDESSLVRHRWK

[3] = molecular target: T3, BACE1 (Homo sapiens, UniProt P56817); experiment: Cellular Abeta-lowering assay; type: cell-based; parameters: endogenous in cells; host or cells: HEK293 stably transfected with human APP695 wt; details: HEK293 cells stably transfected with human APP wt (APP695), Aβ40 ELISA of supernatant after 18-20 hrs
[4] = molecular target: T3, BACE1; experiment: Assay A: binding studies using SPR based methods, immobilised BACE1; parameters: 6his-tagged full length BACE 1 expressed in SF9 cells; 6His; made in house; host or cells: SF9 insect cells; details: CM5 chip, immobilised 6his-tagged full length BACE 1, acetate buffer pH 4.6, 4% DMSO;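 also: KD from a 1:1 kinetic fit (koff/kon) of real-time association and dissociation curves, or for fast binders from end-of-association equilibrium responses plotted against log concentration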

T3 sequence (P56817 46-501): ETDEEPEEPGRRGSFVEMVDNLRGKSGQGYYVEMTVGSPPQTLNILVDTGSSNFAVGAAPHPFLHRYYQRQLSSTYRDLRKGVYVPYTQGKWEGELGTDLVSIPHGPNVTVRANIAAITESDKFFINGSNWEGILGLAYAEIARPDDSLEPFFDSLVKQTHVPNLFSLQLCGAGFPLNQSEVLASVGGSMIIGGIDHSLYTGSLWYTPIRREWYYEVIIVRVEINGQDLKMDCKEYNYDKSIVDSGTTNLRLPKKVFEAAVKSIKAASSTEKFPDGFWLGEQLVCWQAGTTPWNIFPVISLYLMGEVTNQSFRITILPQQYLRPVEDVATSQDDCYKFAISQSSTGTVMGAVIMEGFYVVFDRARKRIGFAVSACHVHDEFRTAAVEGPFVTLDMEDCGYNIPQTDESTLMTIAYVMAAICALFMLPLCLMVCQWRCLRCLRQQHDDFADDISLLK

Kd [1] | IC50 [2] | IC50 [3] | Kd [4] | SMILES
1220 nM | 910 nM | 620 nM | 3950 nM | C[C@@]1(c2cc(NC(=O)C3CC3(F)F)ccc2F)COCC(N)=N1 (mixture of isomers) [Example 53, (RS)-2,2-difluoro-cyclopropanecarboxylic acid [3-((R)-5-amino-3-methyl-3,6-dihydro-2H-[1,4]oxazin-3-yl)-4-fluoro-phenyl]-amide]
1720 nM | > 10000 nM | 1190 nM | 10800 nM | CC1(C)OCC(N)=N[C@]1(C)c1cc(NC(=O)C2CC2(F)F)ccc1F (mixture of isomers) [Example 56, (RS)-2,2-difluoro-cyclopropanecarboxylic [3-((R)-5-amino-2,2,3-trimethyl-3,6-dihydro-2H-[1,4]oxazin-3-yl)-4-fluoro-phenyl]-amide]
477 nM | 52 nM | 120 nM | 474 nM | CC(F)C(=O)Nc1ccc(F)c([C@]2(C)COCC(N)=N2)c1 (mixture of isomers) [Example 87, (RS)—N-[3-((R)-5-amino-3-methyl-3,6-dihydro-2H-[1,4]oxazin-3-yl)-4-fluoro-phenyl]-2-fluoro-propionamide formate]
9 nM | 48 nM | 16 nM | 50 nM | CC1(c2cccc(NC(=O)c3ncc(Cl)cc3Cl)c2)COCC(N)=N1 (racemic) [Example 2, (RS)-3,5-dichloro-pyridine-2-carboxylic acid [3-(5-amino-3-methyl-3,6-dihydro-2H-[1,4]oxazin-3-yl)-phenyl]-amide]
381 nM | 950 nM | 570 nM | 1720 nM | CC1(c2cccc(NC(=O)c3ccc(Cl)cc3Cl)c2)COCC(N)=N1 (racemic) [Example 4, (RS)—N-[3-(5-amino-3-methyl-3,6-dihydro-2H-[1,4]oxazin-3-yl)-phenyl]-2,4-dichloro-benzamide]
230 nM | 660 nM | 1530 nM | 6900 nM | CC1(c2cccc(NC(=O)c3cccc(Cl)c3)c2)COCC(N)=N1 (racemic) [Example 6, (RS)—N-[3-(5-amino-3-methyl-3,6-dihydro-2H-[1,4]oxazin-3-yl)-phenyl]-3-chloro-benzamide]
106 nM | 360 nM | 327 nM | 1490 nM | CC1(c2cccc(NC(=O)c3ccc(Cl)s3)c2)COCC(N)=N1 (racemic) [Example 8, (RS)-5-chloro-thiophene-2-carboxylic acid [3-(5-amino-3-methyl-3,6-dihydro-2H-[1,4]oxazin-3-yl)-phenyl]-amide]
63 nM | 43 nM | 58 nM | 717 nM | Cc1cc(C(=O)Nc2cccc(C3(C)COCC(N)=N3)c2)c(C)s1 (racemic) [Example 9, (RS)-2,5-dimethyl-thiophene-3-carboxylic acid [3-(5-amino-3-methyl-3,6-dihydro-2H-[1,4]oxazin-3-yl)-phenyl]-amide]
33 nM | 51 nM | 24 nM | 445 nM | Cc1cc(C(=O)Nc2cccc(C3(C)COCC(N)=N3)c2)c(C)o1 (racemic) [Example 13, (RS)-2,5-dimethylfuran-3-carboxylic acid [3-(5-amino-3-methyl-3,6-dihydro-2H-[1,4]oxazin-3-yl)-phenyl]-amide]
98 nM | 837 nM | 130 nM | 394 nM | CC1(c2cc(NC(=O)c3ccc(Cl)cc3)ccc2F)COCC(N)=N1 (racemic) [Example 19, (RS)—N-[3-(5-amino-3-methyl-3,6-dihydro-2H-[1,4]oxazin-3-yl)-4-fluoro-phenyl]-4-chloro-benzamide]
19 nM | 11 nM | 11 nM | 140 nM | NC1=NC(c2cc(NC(=O)c3ccc(Cl)cn3)ccc2F)(C2CC2)COC1 (racemic) [Example 22, (RS)-5-Chloro-pyridine-2-carboxylic acid [3-(5-amino-3-cyclopropyl-3,6-dihydro-2H-[1,4]oxazin-3-yl)-4-fluoro-phenyl]-amide]
 | 320 nM | 1130 nM |  | CC1(c2cc(NC(=S)c3ccc(Cl)cc3)ccc2F)COCC(N)=N1 (racemic) [Example 27, (RS)—N-[3-(5-Amino-3-methyl-3,6-dihydro-2H-[1,4]oxazin-3-yl)-4-fluoro-phenyl]-4-chloro-thiobenzamide]
6 nM | 140 nM | 50 nM | 58 nM | C[C@@]1(c2cc(NC(=O)c3ccc(Cl)cn3)ccc2F)CO[C@@H](Cc2ccccc2)C(N)=N1 (racemic) [Example 29, 5-Chloro-pyridine-2-carboxylic acid [3-((3R,6S)— and (3S,6R)-5-amino-6-benzyl-3-methyl-3,6-dihydro-2H-[1,4]oxazin-3-yl)-4-fluoro-phenyl]-amide]
2150 nM | > 10000 nM | 110 nM | 261 nM | CC1(c2cc(NC(=O)c3cc(-c4ccco4)on3)ccc2F)COCC(N)=N1 (racemic) [Example 75, 5-Furan-2-yl-isoxazole-3-carboxylic acid [3-((RS)-5-amino-3-methyl-3,6-dihydro-2H-[1,4]oxazin-3-yl)-4-fluoro-phenyl]-amide]
 | 820 nM | 500 nM | 805 nM | C[C@@]1(c2cc(NC(=O)C(F)C(F)(F)F)ccc2F)COCC(N)=N1 (mixture of isomers) [Example 89, formate]
11 nM | 58 nM | 19 nM | 71 nM | C[C@@]1(c2cc(NC(=O)c3ccc(Cl)cn3)ccc2F)CO[C@H](Cc2ccccc2)C(N)=N1 [Example 28, 5-Chloro-pyridine-2-carboxylic acid [3-((3R,6R)— and (3S,6)-5-amino-6-benzyl-3-methyl-3,6-dihydro-2H-[1,4]oxazin-3-yl)-4-fluoro-phenyl]-amide]
4 nM | 16 nM | 15 nM | 28 nM | C[C@@]1(c2cc(NC(=O)c3ncc(Cl)cn3)ccc2F)COCC(N)=N1 [Example 35, 5-chloro-pyrimidine-2-carboxylic acid [3-((R)-5-amino-3-methyl-3,6-dihydro-2H-[1,4]oxazin-3-yl)-4-fluoro-phenyl]-amide]
955 nM | 120 nM | 550 nM | 2260 nM | C[C@@]1(c2cc(NC(=O)c3coc(C(F)(F)F)c3)ccc2F)COCC(N)=N1 [Example 36, 5-trifluoromethyl-furan-3-carboxylic acid [3-((R)-5-amino-3-methyl-3,6-dihydro-2H-[1,4]oxazin-3-yl)-4-fluoro-phenyl]-amide]
20 nM | 17 nM | 240 nM | 283 nM | C[C@@]1(c2cc(NC(=O)c3ncccc3F)ccc2F)COCC(N)=N1 [Example 37, 3-fluoro-pyridine-2-carboxylic acid [3-((R)-5-amino-3-methyl-3,6-dihydro-2H-[1,4]oxazin-3-yl)-4-fluoro-phenyl]-amide]
32 nM | 44 nM | 21 nM | 39 nM | C[C@@]1(c2cc(NC(=O)c3ncc(C(F)(F)F)cc3Cl)ccc2F)COCC(N)=N1 [Example 38, 3-chloro-5-trifluoromethyl-pyridine-2-carboxylic acid [3-((R)-5-amino-3-methyl-3,6-dihydro-2H-[1,4]oxazin-3-yl)-4-fluoro-phenyl]-amide]
 | 730 nM | 800 nM |  | Cc1nc(C(F)(F)F)c(C(=O)Nc2ccc(F)c([C@]3(C)COCC(N)=N3)c2)s1 [Example 47, 2-methyl-4-trifluoromethyl-thiazole-5-carboxylic acid [3-((R)-5-amino-3-methyl-3,6-dihydro-2H-[1,4]oxazin-3-yl)-4-fluoro-phenyl]-amide]
